Converted amounts (≈) assume the structure as drawn. Where a name gives a salt, the structure may show the parent alone.
How the values were obtained:
MC38 cells = assay: MTT cell proliferation assay; format: cell-based, murine; settings: Mus musculus, MC-38, read-out: Cytotoxicity (IC50)
Solubility in PBS = format: physicochemical; settings: aqueous buffer
rats = settings: given over 22 days; cited from earlier work

## COc1cc([C@@H]2c3cc4c(cc3[C@@H](O[C@@H]3O[C@@H]5CO[C@@H](C)O[C@H]5[C@H](O)[C@H]3O)[C@H]3COC(=O)[C@H]23)OCO4)cc(OC)c1O [ETP, etoposide]
MC38 cells
  IC50: 160 nM
Solubility in PBS
  solubility: 2800 µg/mL (≈ 4.76 mM)

## CC(=O)O[C@H]1C(=O)[C@@]2(C)[C@H]([C@H](OC(=O)c3ccccc3)[C@]3(O)C[C@H](OC(=O)[C@H](O)[C@@H](NC(=O)c4ccccc4)c4ccccc4)C(C)=C1C3(C)C)[C@]1(OC(C)=O)CO[C@@H]1C[C@@H]2O [PTX, paclitaxel]
MC38 cells
  IC50: 32 nM

## COc1cccc2c1C(=O)c1c(O)c3c(c(O)c1C2=O)C[C@@](O)(C(=O)CO)C[C@@H]3O[C@H]1C[C@H](N)[C@H](O)[C@H](C)O1 [Dox HCl, doxorubicin]
MC38 cells
  IC50: 23 nM
Solubility in PBS
  solubility: 3800 µg/mL
rats
  Multi-dose MTD of conventional Dox: 10 mg/kg

## Nc1ccn([C@@H]2O[C@H](CO)[C@@H](O)C2(F)F)c(=O)n1 [GCB HCl, gemcitabine]
MC38 cells
  IC50: 3 nM
